Measurements published in publication PMC3591448, “Profile of the GSK Published Protein Kinase Inhibitor Set Across ATP-Dependent and-Independent Luciferases: Implications for Reporter-Gene Assays” (PLoS ONE, 2013).
Like-named read-outs stand apart in the source and are kept apart here.

How the values were obtained:
[1] = target: firefly luciferase, Photinus pyralis (FLuc) (Photinus pyralis, UniProt P08659); test: biochemical; type: biochemical; details: for FLuc Parameters Hill Coef: Hill equation fit of CRC; for Emax: response relative to PTC124 control inhibitor, negative = inhibition, read-out: FLuc Parameters Efficacy
Experimental: (§1) The bioluminescence outputs were measured by an EnVision reader (PerkinElmer, Wellesley, MA). Due to the relatively short luminescence duration of the RLuc assay, dispense time constants were set to match closely to the read time of the plate reader. As a result, each individual well was read with approximately the same time delay from reagent dispense to signal acquisition. See Table 1 for the 1536-well assay protocols.
(§2) Data from each assay was normalized plate-wise to corresponding intraplate controls as described previously, [17]. The same control data sets were also used for the calculation of Z′ factors from each assay. In all assays, wells containing DMSO were used as no-response controls. For the FLuc enzymatic assay, each compound-treated well on the plate was normalized to the average readings of n = 24 PTC124 treated wells and n = 48 DMSO wells from the same plate. Wells were scaled to a full range of DMSO and zero, and then normalized using the maximum response observed in the screen as 100% activity. For the RLuc enzymatic assay, n = 24 BTS treated wells for the positive control, n = 48 DMSO. MSR values were calculated using the cumulative potency differences of the de-interleaved duplicate control titrations from each plate as previously described. The normalized data from each assay plate set was corrected using DMSO-only treated assay plates read at the start and end of each assay run, and the resulting inter-plate titration data fit, using in-house software, to the standard Hill equation and dose-response curves automatically classified as described previously.
(§3) The curve classification scheme for assignment of resulting curve-fit data into CRC classes was according to Inglese et al. as follows: class 1 curves (far left) display two asymptotes, an inflection point, and r^2≥0.9; subclasses 1a vs. 1b are differentiated by full (>80%) vs. partial (≤80%) response. Class 2 curves (second from left) display a single left-hand asymptote and inflection point; subclasses 2a (or 2.1) and 2b (2.2) are differentiated by a max response and r^2, >80% and >0.9 or <80% and <0.9, respectively. Class 3 curves (second from right) have a single left-hand asymptote, no inflection point, and a response >3SD from the mean activity of the sample field.

[2] = target: T1, Renilla luciferase (RLuc) (Renilla reniformis, UniProt P27652); test: RLuc enzymatic assay (purified enzyme, qHTS, 1536-well); type: biochemical; details: 1 nM RLuc, 5 µM coelenterazine-H
T1 sequence (P27652 1-311): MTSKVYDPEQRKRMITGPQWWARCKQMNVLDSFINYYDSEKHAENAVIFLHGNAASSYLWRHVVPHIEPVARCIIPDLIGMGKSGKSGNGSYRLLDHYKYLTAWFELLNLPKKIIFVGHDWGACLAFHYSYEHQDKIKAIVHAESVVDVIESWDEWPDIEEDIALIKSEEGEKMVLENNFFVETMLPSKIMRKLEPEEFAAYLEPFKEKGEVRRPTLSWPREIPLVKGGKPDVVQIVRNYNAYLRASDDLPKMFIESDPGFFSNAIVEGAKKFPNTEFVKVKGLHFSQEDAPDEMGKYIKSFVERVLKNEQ
Experimental: as §1, with “1 µL of purified luciferase was then dispensed into each well for final concentrations 10 nM FLuc or 1 nM RLuc. The” for “The”
as §2, §3

TRKA = system: TRKA; set-up: method as in Wood, E.R., et al. 2004; details: ref Wood, E.R., et al. 2004; read-out: PKI IC50 (µM), TRKA; cited from earlier work
LCK = system: LCK; set-up: method as in Bamborough, P., et al. 2007; details: ref Bamborough, P., et al. 2007; read-out: PKI IC50 (µM), LCK; cited from earlier work
GSK3β = details: ref Peat, A. J., et al., 2004; read-out: PKI IC50 (µM), GSK3β; cited from earlier work
p38 = system: p38; set-up: method as in Angell, R.M., et al. 2008; details: ref Angell, R.M., et al. 2008; read-out: PKI IC50 (µM), p38; cited from earlier work
CDK2 = details: ref Bramson, H. N., et al., 2001; read-out: PKI IC50 (µM), CDK2; cited from earlier work
RHO = system: RHO; set-up: method as in Stavenger, R. A., et al. 2007; details: ref Stavenger, R. A., et al. 2007; read-out: PKI IC50 (µM), RHO; cited from earlier work
JNK3 = system: JNK3; set-up: method as in Angell, R.M., et al. 2007; details: ref Angell, R.M., et al. 2007; read-out: PKI IC50 (µM), JNK3; cited from earlier work
VEGFR = system: VEGFR; set-up: method as in Sammond, D.M., et al. 2005; details: ref Sammond, D.M., et al. 2005; read-out: PKI IC50 (µM), VEGFR; cited from earlier work
[3] = Figure 2b, representative structures of clusters, read-out: FLuc IC50
[4] = Figure 4b, read-out: FLuc (IC50)
[5] = Figure 3, read-out: IC50 (FLuc)
[6] = 10 nM FLuc, 10 µM D-luciferin, 10 µM ATP, read-out: FLuc Parameters IC50
[7] = Figure 2b, representative structures of clusters

Sequence of firefly luciferase, Photinus pyralis (FLuc) (P08659 whole entry): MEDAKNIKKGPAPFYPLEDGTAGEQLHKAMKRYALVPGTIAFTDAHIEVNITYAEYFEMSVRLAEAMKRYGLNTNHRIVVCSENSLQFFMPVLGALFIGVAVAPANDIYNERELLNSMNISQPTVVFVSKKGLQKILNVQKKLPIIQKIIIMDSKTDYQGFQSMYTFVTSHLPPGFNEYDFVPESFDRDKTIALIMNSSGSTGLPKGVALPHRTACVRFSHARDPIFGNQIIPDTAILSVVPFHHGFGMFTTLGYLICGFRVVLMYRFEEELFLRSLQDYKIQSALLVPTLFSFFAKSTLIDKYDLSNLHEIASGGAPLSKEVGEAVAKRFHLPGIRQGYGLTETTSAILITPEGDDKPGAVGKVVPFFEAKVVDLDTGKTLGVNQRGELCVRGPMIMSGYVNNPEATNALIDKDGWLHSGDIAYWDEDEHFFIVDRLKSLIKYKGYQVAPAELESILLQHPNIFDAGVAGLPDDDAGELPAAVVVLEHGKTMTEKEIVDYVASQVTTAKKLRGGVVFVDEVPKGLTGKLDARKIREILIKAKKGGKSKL

| Structure (SMILES) | RLuc Curve Class [2] | IC50 [1, 6] [nM] | FLuc Parameters Hill Coef [1] | IC50 ([1]; Table 3, read-out: FLuc IC50) [nM] | Emax [1] [%] | other results |
| --- | --- | --- | --- | --- | --- | --- |
| COc1cccc(-c2c[nH]c3c(N/N=C/c4ccncc4)ncnc23)c1 [GW814408X] | – | – | – | – | – | IC50 [1, 3]: 6000 nM; IC50 [1, 4]: 5800 nM |
| CCc1cccc(NC(=O)Nc2ccc(Oc3ccc4nc(NC(=O)OC)[nH]c4c3)cc2)c1 [GW673715X] | – | – | – | – | – | IC50 [1, 5]: > 30000 nM |
| O=C1Nc2ccccc2/C1=C/Nc1ccc2[nH]c(=O)[nH]c2c1 [GW284408X] | 4 | 4110 | 1.93 | 4110 | 37.9 | IC50 (TRKA): 0.007 µM |
| NC(=O)c1cccc(Nc2nccc(Nc3cccc(F)c3)n2)c1 [GW759710A] | 4 | 730 | 1.21 | 730 | 98.6 | IC50 (LCK): 3.3 µM |
| COc1cc(Nc2ncc(-c3ccccc3)o2)cc(OC)c1 [GW631581B] | 4 | 6510 | 1.29 | 6510 | 88.5 | – |
| CCN(CC)S(=O)(=O)c1ccc(OC)c(Nc2ncc(-c3ccccc3)o2)c1 [GW572401X] | – | – | – | – | – | IC50 [1, 5]: > 20000 nM |
| COC(=O)Nc1nc2cc(Oc3ccc(NC(=O)Nc4ccccc4)cc3)ccc2[nH]1 [GW694590A] | – | – | – | – | – | IC50 [1, 3]: 15000 nM; IC50 [1, 5]: 14600 nM; IC50 [1, 4]: 14000 nM |
| COc1cc(/C=N/Nc2ncnc3[nH]ncc23)ccc1O [GW578748X] | 4 | 3660 | 1.33 | 3660 | 82.3 | IC50 (GSK3β): 3.16 µM; IC50 [1, 5]: 3700 nM |
| Cc1cccc(Nc2ncc(-c3ccccc3)o2)c1 [GW632046X] | 4 | 580 | 1.11 | 580 | 104 | – |
| O=C(NCC1CC1)c1ccc(-c2cccc(C(=O)NC3CC3)c2)cc1 [GW806776X] | – | 9190 | 1.51 | 9190 | 35.2 | IC50 (p38): 0.075 µM |
| C/C(Nc1ccc(S(N)(=O)=O)cc1)=C1/C(=O)Nc2ccccc21 [GW335962X] | 4 | 3660 | 1.51 | 3660 | 68.8 | IC50 (CDK2): 0.36 µM |
| O=C1NC(=O)C(c2ccc(Cl)cc2)=C1Nc1ccc(Cl)c(C(=O)O)c1 [SB-360741] | – | – | – | – | – | FLuc IC50 [1, 7]: inactive |
| O=C(Nc1n[nH]c2cc(-c3ccccc3)ccc12)C1CC1 [SB-732941] | – | – | – | – | – | IC50 [1, 3]: 18000 nM |
| COc1cccc(-n2ncc3c(N/N=C/c4ccncc4)ncnc32)c1 [GW784752X] | – | – | – | – | – | IC50 [1, 5]: 6500 nM |
| O=C1Nc2ccccc2/C1=C1\CCc2cc(O)ccc21 [GR105659X] | – | 5170 | 1.01 | 5170 | 103 | IC50 (TRKA): 0.006 µM |
| COc1cccc(-n2ncc3c(N/N=C/c4ccc(C(=O)NCCN(C)C)cc4)ncnc32)c1 [GW784307A] | – | – | – | – | – | IC50 [1, 5]: 16000 nM |
| COc1ccc(-c2ccc3c(NC(=O)C4CC4)n[nH]c3n2)cc1 [SB-711237] | 4 | 2310 | 0.8 | 2310 | 44.8 | – |

| Structure (SMILES) | RLuc Curve Class [2] | IC50 [1, 6] [nM] | FLuc Parameters Hill Coef [1] | IC50 ([1]; Table 3, read-out: FLuc IC50) [nM] | Emax [1] [%] | other results |
| --- | --- | --- | --- | --- | --- | --- |
| COc1ccc(Nc2ncc(-c3ccccc3)o2)cc1OC [GW575533A] | 4 | 5800 | 1.17 | 5800 | 90 | – |
| CC(C)c1ccc2c(c1)NC(=O)C2=NNc1ccc(S(N)(=O)=O)cc1 [GW300653X] | – | – | – | – | – | FLuc IC50 [1, 7]: Inactive |
| CCn1c(-c2nonc2N)nc2cnc(Oc3cccc(NC(=O)c4ccc(N(C)C)cc4)c3)cc21 [GSK248233A] | 4 | 1030 | 0.9 | 1030 | 98.9 | IC50 (RHO): 0.002 µM; IC50 [1, 4]: 1000 nM |
| COC(=O)Nc1nc2cc(Oc3ccc(NC(=O)Nc4cccc(Br)c4)cc3)ccc2[nH]1 [GW694234A] | – | – | – | – | – | IC50 [1, 5]: > 30000 nM |
| N#Cc1c(NC(=O)c2ccc(F)cc2)sc2c1CCCC2 [SB-347804] | 4 | 920 | 1.48 | 920 | 72.5 | IC50 (JNK3): 3.16 µM |
| c1ccc(Nc2ncc(-c3ccccc3)o2)cc1 [GW549390X] | 4 | 260 | 1.1 | 260 | 98.6 | – |
| NS(=O)(=O)c1cccc(N/C=C2\C(=O)Nc3ccccc32)c1 [GW275616X] | – | – | – | – | – | IC50 [1, 3]: 18000 nM |
| N#Cc1cccc(Nc2ncc(-c3ccccc3)o2)c1 [GW627834A] | 4 | 1030 | 1.21 | 1030 | 84.1 | IC50 [1, 3]: 1000 nM |
| Cc1ccc(Nc2ccnc(Nc3cccc(C(N)=O)c3)n2)cc1O [GW575808A] | 4 | 1460 | 1.54 | 1460 | 106 | IC50 (LCK): 0.19 µM |
| COC(=O)Nc1nc2ccc(Oc3ccc(NC(=O)Nc4cccc(C(=O)O)c4)cc3)cc2[nH]1 [GW701427A] | – | 120 | 1.69 | 120 | 102 | – |
| COC(=O)Nc1nc2ccc(Oc3ccc(NC(=O)Nc4cccc(Cl)c4)cc3)cc2[nH]1 [GW589961A] | – | – | – | – | – | IC50 [1, 5]: > 30000 nM |
| CN(c1ccc(NC(=O)Nc2c(Cl)cccc2Cl)cc1)c1ccnc(Nc2cccc(CS(C)(=O)=O)c2)n1 [GW809897X] | 4 | 580 | 1.11 | 580 | 109 | IC50 (VEGFR): 0.065 µM; IC50 [1, 4]: 560 nM |
| N#Cc1c(NC(=O)c2ccccc2F)sc2c1CCCC2 [GW572738X] | 4 | 820 | 1.66 | 820 | 82.6 | IC50 (JNK3): 0.4 µM |
| CS(=O)(=O)CCNCc1coc(-c2ccc3ncnc(Nc4ccc(OCc5ccccc5)cc4)c3c2)c1 [GW566221A] | – | – | – | – | – | IC50 [1, 3]: 12000 nM |
| COc1cc(/C=N/Nc2ncnc3c2cnn3C(C)C)ccc1O [GW644007X] | 4 | 5800 | 1.86 | 5800 | 40.7 | IC50 (GSK3β): 2.51 µM |
| COc1cccc(-n2ncc3c(N/N=C/c4ccc(F)cc4)ncnc32)c1 [GW817396X] | – | – | – | – | – | IC50 [1, 5]: 33000 nM |
| COc1cccc(-n2cnc3c(N/N=C/c4ccncc4)ncnc32)c1 [GW813360X] | – | – | – | – | – | IC50 [1, 5]: 16000 nM |
